{"source": "patent US20160003837A1", "about": "“BIOMARKERS FOR THE PREDICTION OF PRETERM BIRTH” (DUKE UNIVERSITY, priority 2013, published 2016)", "key": {"[1]": {"settings": "women with a history of spontaneous preterm birth; weekly intramuscular injection; cited from earlier work"}, "[2]": {"tested_on": "Matrix Metalloprotease 9 (MMP-9) activity in HTR8/SVneo cells", "assay": "TNF-α-induced MMP-9 activity (zymography)", "format": "cell-based", "settings": "for reduction of TNFα-induced MMP-9 activity compared to stimulated controls: MPA pre-treatment", "text": "FIGS. 4A-4C show the effect of knocking down PGRMC1 expression on the efficacy of medroxyprogesterone acetate (MPA) pretreatment in HTR8/SVneo cells.\n(§1) Progesterone treatment also blunted TNF α-mediated induction of metalloproteinase 9 (MMP-9) activity (data not shown).\nThe inhibitory effect of MPA pre-treatment on TNFα-induced activity was diminished when compared to cells treated with the scramble siRNA group (see FIGS. 4B&4C). […] However, in the PGRMC1 siRNA group this effect was lost with MPA pre-treatment reducing MMP-9 activity to a lesser degree when compared with stimulated controls (15%, p=0.100). Both the unstimulated (vehicle) control and the MPA groups are shown in the zymogram. The relative MMP-9 activity represents activity in excess of baseline for each experimental group. The unstimulated (vehicle) control only is represented graphically for both siRNA treatments. Experiments were replicated on 5 separate occasions. Data are mean+standard error of the mean."}, "[3]": {"settings": "women at risk based on shortened cervical length; vaginal; cited from earlier work"}, "caspase 3 cleavage": {"tested_on": "caspase 3 cleavage", "assay": "Caspase 3 cleavage following treatment with calcimycin", "format": "cell-based", "settings": "data not shown"}, "PGRMC1": {"biological_target": "PGRMC1 (Homo sapiens, UniProt O00264)", "sequence (O00264 whole entry)": "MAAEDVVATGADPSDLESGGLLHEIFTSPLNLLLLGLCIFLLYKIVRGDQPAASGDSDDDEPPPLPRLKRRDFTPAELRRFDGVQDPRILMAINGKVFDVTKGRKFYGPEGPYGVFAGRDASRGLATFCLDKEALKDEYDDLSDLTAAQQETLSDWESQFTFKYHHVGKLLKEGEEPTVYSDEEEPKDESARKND", "settings": "cited from earlier work"}, "HTR8/Sv cells": {"tested_on": "HTR8/Sv cells", "assay": "Calcimycin-induced apoptotic cell death, CELLTITER 96 Aqueous Non-Radioactive Cell Proliferation Assay", "format": "cell-based", "settings": "pretreatment of HTR8/Sv cells; FIG. 1", "text": "FIGS. 1A-1B are A) Western blot and B) graph showing calcium-induced cytrotrophoblast apoptotic cell death reduction by progesterone (R5020) pretreatment.\nas §1"}}, "data": [{"smiles": "CCCCCC(=O)O[C@]1(C(C)=O)CC[C@H]2[C@@H]3CCC4=CC(=O)CC[C@]4(C)[C@H]3CC[C@@]21C", "note": "[17-OHPC, 17 alpha hydroxyprogesterone caproate]", "values": [{"measurement": "reduction in preterm birth rates", "setting": "[1]", "value": 35, "unit": "%"}]}, {"smiles": "CC(=O)O[C@]1(C(C)=O)CC[C@H]2[C@@H]3C[C@H](C)C4=CC(=O)CC[C@]4(C)[C@H]3CC[C@@]21C", "note": "[MPA, medroxyprogesterone acetate]", "values": [{"measurement": "reduction of TNFα-induced MMP-9 activity compared to stimulated controls", "setting": "[2]; PGRMC1 siRNA group, p=0.100", "value": 15, "unit": "%"}, {"measurement": "reduction of TNFα-induced MMP-9 activity compared to stimulated controls", "setting": "[2]; scramble siRNA group, p<0.008", "value": 45, "unit": "%"}]}, {"smiles": "CC(=O)[C@H]1CC[C@H]2[C@@H]3CCC4=CC(=O)CC[C@]4(C)[C@H]3CC[C@]12C", "note": "[Progesterone, progesterone]", "values": [{"measurement": "TNF α-mediated induction of MMP-9 activity", "setting": "[2]; data not shown", "value": "blunted"}, {"measurement": "reduction of the risk of preterm birth", "setting": "[3]", "value": 45, "unit": "%"}]}, {"smiles": "CCC(=O)[C@@]1(C)CC[C@H]2[C@@H]3CCC4=CC(=O)CCC4=C3CC[C@@]21C", "note": "[R5020]", "values": [{"measurement": "caspase 3 cleavage following treatment with calcimycin", "setting": "caspase 3 cleavage", "value": "lower caspase 3 cleavage"}, {"measurement": "binding to PGRMC1", "setting": "PGRMC1", "value": "high binding"}, {"measurement": "protection against calcium-ionophore calcimycin-induced apoptotic cell death", "setting": "HTR8/Sv cells", "value": "protected the cells"}]}]}
